24 compounds from patent US20130324526A1, “[1,2,4] TRIAZOLO [4,3-B] PYRIDAZINE COMPOUNDS AS INHIBITORS OF THE C-MET TYROSINE KINASE” (NOVARTIS AG, priority 2011, published 2013) can be followed below.

For test [1], the target named is c-MET receptor tyrosine kinase, GST-c-MET(969-1390) (Homo sapiens, UniProt P08581). The test can be described thus: EPK c-MET profiling assay (LanthaScreen TR-FRET kinase assay). In kind it is biochemical. The note with it: 2 μM ATP, 0.3 nM enzyme, 60 minutes at room temperature; end point measurement, repeats can be about two times higher or lower; read-out: c-Met Biochem IC50. As for the experimental part: The exemplified compounds of the present invention were assayed in an antibody based kinase phosphorylation assay as follows.
EPK c-MET Profiling Assay:
The EPK kinase assay for c-MET receptor tyrosine kinase was developed, using the purified recombinant GST-fusion protein, containing the cytoplasmic domain of the enzyme. GST-c-MET(969-1390) was purified by affinity chromatography.
The kinase assay is based on the LanthaScreen™ technology. LanthaScreen™ is the detection of Time-Resolved Fluorescence Resonance Energy Transfer (TR-FRET) using lanthanide chelates to measure interactions between various binding partners. In a TR-FRET kinase assay, a long-lifetime lanthanide donor species is conjugated to an antibody that specifically binds to a phosphorylated product of a kinase reaction that is labeled with a suitable acceptor fluorophore. This antibody-mediated interaction brings the lanthanide donor and the acceptor into proximity such that resonance energy transfer can take place, resulting in a detectable increase in the FRET signal.
The kinase reactions were performed in 384 well microtiter plates in a total reaction volume of 10.05 μL. The assay plates were prepared with 0.05 μL per well of test compound in the appropriate test concentration, as described under “preparation of compound dilutions”. The reactions were started by combining 5 μL of ATP solution with 5 μL of enzyme-substrate mix (consisting of kinase and substrate). The final concentrations in the kinase reactions were 25 mM Tris/HCl, 1 mM DTT, 0.025% Tween20, 10 μM sodium orthovanadate, 0.25% BSA, 0.5% DMSO, 10 mM MgCl2, 3 mM MnCl2, 2 μM ATP, 50 nM Fluorescein-PolyEAY, and 0.3 nM enzyme. The reactions were incubated for 60 minutes at room temperature and stopped by adding 5 μL of stop buffer (50 mM EDTA, 0.04% NP40, 20 mM Tris/HCl). Subsequently 5 μL of detection mix (50 mM Tris/HCl, 2 mM DTT, 0.05% Tween20, 20 μM sodium orthovanadate, 1% BSA, 1 nM Tb-PY20 antibody) were added to the stopped reactions. After 45 minutes incubation in dark at room temperature, the plates were measured in a Perkinelmer Envision fluorescence reader. The effect of compound on the enzymatic activity was in all assays obtained from the linear progress curves and normally determined from one reading (end point measurement).
These endpoint results should therefore only be seen as an indicator for the activity range, since repeated measurements can result in about two times higher or lower values.
On the technique in general: In TR-FRET formats the signal depends on donor and acceptor labels being close together.

In test [2] the test system is GTL16 cells. As to the kind of experiment: GTL16 cell viability assay (CellTiter Glo). It counts as cell-based. The note with it: Homo sapiens, GTL 16, GTL16 gastric cancer cells, 24 hours, triplicates, read-out: GTL-16 Proliferation IC50. As for the experimental part: GTL16 cell line is derived from a gastric cancer patient. GTL16 expresses high level of c-Met receptor tyrosine kinase due to the gene amplification.
GTL16 cells were seeded in DMEM medium with 10% FBS and 1% Pene. & Strep. at 5000 cells/well/90 μL in 96 well plate and incubated overnight for attachment at 37° C. in 5% CO2 incubator. 10-fold serials dilutions of compounds were added to the cell as 10 μL/well. The final assay volume was 100 μl/well. The assay plates were incubated at 37° C. in 5% CO2 incubator for 24 hours. […] Briefly, the plates were cooled at room temperature for 10 mins and 100 μl of CellTiter Glo reagent was added into each well. Plates were shaken for 10 mins. The chemiluminescent light unit was read in Envision from Perkin Elmer. All the tests were run at triplicates. The IC50 was calculated using Spotfire software.
Background: Cellular ATP, detected with luciferase, serves as a proxy for viable cell number.

For test [3], the target named is T1, human platelet PDE3 (Homo sapiens, UniProt Q14432).
T1 construct: Human platelet PDE3 (partially purified from human platelets); from tissue; host or cells: human platelets
As to the kind of experiment: hPDE3 assay ([3H]cAMP scintillation proximity assay). It counts as biochemical. The following applies: human platelet PDE3, [3H]cAMP SPA, 30 min at room temperature.

c-MET receptor tyrosine kinase, GST-c-MET(969-1390), sequence (P08581 969-1390): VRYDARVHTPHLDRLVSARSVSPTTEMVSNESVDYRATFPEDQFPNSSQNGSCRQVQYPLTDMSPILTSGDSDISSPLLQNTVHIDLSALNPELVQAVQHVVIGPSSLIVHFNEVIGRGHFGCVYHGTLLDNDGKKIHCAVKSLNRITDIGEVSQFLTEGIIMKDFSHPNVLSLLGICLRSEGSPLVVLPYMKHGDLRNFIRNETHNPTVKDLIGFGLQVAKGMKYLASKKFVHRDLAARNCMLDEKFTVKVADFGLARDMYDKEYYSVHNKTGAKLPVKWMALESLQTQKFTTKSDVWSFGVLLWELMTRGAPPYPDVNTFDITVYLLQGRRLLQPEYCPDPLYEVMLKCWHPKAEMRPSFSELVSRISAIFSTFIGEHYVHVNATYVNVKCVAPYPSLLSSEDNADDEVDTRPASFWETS
T1 sequence (Q14432 whole entry): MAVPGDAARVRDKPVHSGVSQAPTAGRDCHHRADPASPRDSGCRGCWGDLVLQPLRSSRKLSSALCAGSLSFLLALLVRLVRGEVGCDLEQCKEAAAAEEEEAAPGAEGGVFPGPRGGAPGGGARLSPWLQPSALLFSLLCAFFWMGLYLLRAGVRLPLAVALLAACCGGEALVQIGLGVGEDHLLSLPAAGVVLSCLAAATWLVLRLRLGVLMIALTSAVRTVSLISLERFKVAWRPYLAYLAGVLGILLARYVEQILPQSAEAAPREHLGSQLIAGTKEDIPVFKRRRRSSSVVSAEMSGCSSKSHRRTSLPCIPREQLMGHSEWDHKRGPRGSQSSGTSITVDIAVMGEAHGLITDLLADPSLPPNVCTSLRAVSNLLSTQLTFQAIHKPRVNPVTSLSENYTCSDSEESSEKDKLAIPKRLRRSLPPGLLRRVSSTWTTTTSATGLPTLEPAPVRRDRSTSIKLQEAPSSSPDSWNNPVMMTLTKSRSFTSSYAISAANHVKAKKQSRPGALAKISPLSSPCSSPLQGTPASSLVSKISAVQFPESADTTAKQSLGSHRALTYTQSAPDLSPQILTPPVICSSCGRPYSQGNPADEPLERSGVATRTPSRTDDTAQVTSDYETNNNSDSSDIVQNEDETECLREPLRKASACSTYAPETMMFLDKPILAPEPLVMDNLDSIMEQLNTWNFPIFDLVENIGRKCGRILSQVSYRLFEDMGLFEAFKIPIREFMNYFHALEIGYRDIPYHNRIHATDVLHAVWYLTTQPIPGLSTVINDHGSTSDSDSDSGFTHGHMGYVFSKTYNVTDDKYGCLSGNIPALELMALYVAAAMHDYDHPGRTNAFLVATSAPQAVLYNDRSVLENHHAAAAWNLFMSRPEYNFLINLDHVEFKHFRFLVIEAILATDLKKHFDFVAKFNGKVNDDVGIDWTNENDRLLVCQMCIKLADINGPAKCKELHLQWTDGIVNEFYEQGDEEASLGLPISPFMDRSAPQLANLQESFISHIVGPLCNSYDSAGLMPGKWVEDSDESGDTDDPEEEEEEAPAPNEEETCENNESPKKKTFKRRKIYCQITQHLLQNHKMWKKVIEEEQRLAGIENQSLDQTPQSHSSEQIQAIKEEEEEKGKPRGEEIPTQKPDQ

For `C/C(=N\O)c1ccc2nnc([C@H](C)c3c(F)cc4ncc(C(C)(C)O)cc4c3F)n2n1` [24-(R)], the results for the IC50 in test [1], in test [2] and in test [3] were 146 nM, 126 nM and 6000 nM, respectively.

Take `C/C(=N\O)c1ccc2nnc([C@@H](C)c3c(F)cc4ncc(C(C)(C)O)cc4c3F)n2n1` [24-(S)]: the values for the IC50 in test [1], in test [2] and in test [3] were 5 nM, 80 nM and 8000 nM, respectively.

`C/C(=N\O)c1ccc2nnc(C(C)c3ccc4ncc(-c5cnn(C)c5)cc4c3)n2n1` (centres unmarked) [Example 1, (E)-1-(3-{1-[3-(1-Methyl-1H-pyrazol-4-yl)quinolin-6-yl]-ethyl}-[1,2,4]triazolo[4,3-b]pyridazin-6-yl)-ethanone oxime]: the IC50 in test [1] came to 5 nM; in test [2], 9 nM.

Consider `CCO/N=C(\C)c1ccc2nnc(C(C)c3ccc4ncc(-c5cnn(C)c5)cc4c3)n2n1` (centres unmarked) [Example 2, (E)-1-(3-{1-[3-(1-Methyl-1H-pyrazol-4-yl)quinolin-6-yl]-ethyl}-[1,2,4]triazolo[4,3-b]pyridazin-6-yl)-ethanone O-ethyl-oxime], for which the IC50 was determined as 6 nM in test [1] and 2 nM in test [2].

With `CO/N=C(\C)c1ccc2nnc([C@H](C)c3ccc4ncc(-c5cnn(C)c5)cc4c3)n2n1` [Example 3-(R)], the IC50 in test [1] stood at 26 nM; in test [2], 27 nM; in test [3], 11000 nM.

`CO/N=C(\C)c1ccc2nnc([C@@H](C)c3ccc4ncc(-c5cnn(C)c5)cc4c3)n2n1` [Example 3-(S)]: the IC50 amounted to 5 nM in test [1], 1 nM in test [2] and 2000 nM in test [3].

As to `C/C(=N\OCC1CC1)c1ccc2nnc(C(C)c3ccc4ncc(-c5cnn(C)c5)cc4c3)n2n1` (centres unmarked) [Example 4, (E)-1-(3-{1-[3-(1-Methyl-1H-pyrazol-4-yl)quinolin-6-yl]-ethyl}-[1,2,4]triazolo[4,3-b]pyridazin-6-yl)-ethanone O-cyclopropylmethyl-oxime], the IC50 in test [1] was found to be 25 nM.

For the compound `C/C(=N\OCC1CC1)c1ccc2nnc([C@H](C)c3ccc4ncc(-c5cnn(C)c5)cc4c3)n2n1` [Example 4-(R)], the IC50 in test [1] amounted to 144 nM; in test [2], 99 nM; in test [3], 10000 nM.

Take `C/C(=N\OCC1CC1)c1ccc2nnc([C@@H](C)c3ccc4ncc(-c5cnn(C)c5)cc4c3)n2n1` [Example 4-(S)]: the results for the IC50 in test [1], in test [2] and in test [3] were 23 nM, 9 nM and 1200 nM, respectively.

With `C/C(=N\N)c1ccc2nnc(C(C)c3ccc4ncc(-c5cnn(C)c5)cc4c3)n2n1` (centres unmarked) [Example 5], the IC50 amounted to 5 nM in test [1] and 1 nM in test [2].

Take `CO/N=C(\C)c1ccc2nnc(Cc3ccc4ncc(-c5cnn(C)c5)cc4c3)n2n1` [Example 6, (E)-1-{3-[3-(1-Methyl-1H-pyrazol-4-yl)quinolin-6-ylmethyl]-[1,2,4]triazolo[4,3-b]pyridazin-6-yl}-ethanone O-methyl-oxime]: the IC50 in test [1] worked out at 4 nM; in test [2], 0.5 nM.

As to `C/C(=N\OCC1CC1)c1ccc2nnc(Cc3ccc4ncc(-c5cnn(C)c5)cc4c3)n2n1` [Example 7, (E)-1-{3-[3-(1-Methyl-1H-pyrazol-4-yl)quinolin-6-ylmethyl]-[1,2,4]triazolo[4,3-b]pyridazin-6-yl}-ethanone O-cyclopropylmethyl-oxime], the values for the IC50 in test [1] and in test [2] were 11 nM and 8 nM, respectively.

Turning to `CCO/N=C(\C)c1ccc2nnc(Cc3ccc4ncc(-c5cnn(C)c5)cc4c3)n2n1` [Example 8, (E)-1-{3-[3-(1-Methyl-1H-pyrazol-4-yl)quinolin-6-ylmethyl]-[1,2,4]triazolo[4,3-b]pyridazin-6-yl}-ethanone O-ethyl-oxime], the IC50 is 3 nM in test [1] and 0.3 nM in test [2].

Regarding `C/C(=N\OCC1CC1)c1ccc2nnc(C(C)c3ccc4ncc(CN5CCOCC5)cc4c3)n2n1` (centres unmarked) [Example 9, (E)-1-{3-[1-(3-Morpholin-4-ylmethyl-quinolin-6-yl)-ethyl]-[1,2,4]triazolo[4,3-b]pyridazin-6-yl}-ethanone O-cyclopropylmethyl-oxime], the figures for the IC50 in test [1] and in test [2] were 86 nM and 311 nM, respectively.

With `C/C(=N\O)c1ccc2nnc(Sc3ccc4ncc(N5CCOCC5)cc4c3)n2n1` [Example 10, (E)-1-[3-(3-Morpholin-4-yl-quinolin-6-ylsulfanyl)-[1,2,4]triazolo[4,3-b]pyridazin-6-yl]-ethanone oxime], the IC50 in test [1] is 4 nM; in test [2], 1 nM.

On to `C/C(=N\O)c1ccc2nnc(Cc3ccc4ncc(CN5CCN(C)CC5)cc4c3)n2n1` [Example 16, (E)-1-(3-((3-((4-Methylpiperazin-1-yl)methyl)quinolin-6-yl)methyl)-[1,2,4]triazolo[4,3-b]pyridazin-6-yl)ethanone oxime], for which the values for the IC50 in test [1] and in test [2] were 25 nM and 491 nM, respectively.

Take `C/C(=N\O)c1ccc2nnc(Cc3c(F)cc4ncc(CN5CCOCC5)cc4c3F)n2n1` [Example 17, (E)-1-(3-((5,7-Difluoro-3-(morpholin-4-yl-methyl)quinolin-6-yl)methyl)-[1,2,4]triazolo[4,3-b]pyridazin-6-yl)ethanone oxime]: the IC50 in test [1] was 3 nM; in test [2], 10 nM.

With `C/C(=N\O)c1ccc2nnc(Cc3ccc4ncc(CN5CCCCC5)cc4c3)n2n1` [Example 18, (E)-1-(3-((3-(Piperidin-1-ylmethyl)quinolin-6-yl)methyl)-[1,2,4]triazolo[4,3-b]pyridazin-6-yl)ethanone oxime], the IC50 in test [1] was 207 nM; in test [2], 317 nM.

For `C/C(=N\O)c1ccc2nnc(Cc3ccc4ncc(N5C[C@@H]6C[C@H]5CN6C)cc4c3)n2n1` [Example 19, (E)-1-(3-((3-((1S,4S)-5-Methyl-2,5-diazabicyclo[2.2.1]heptan-2-yl)quinolin-6-yl)methyl)-[1,2,4]triazolo[4,3-b]pyridazin-6-yl)ethanone oxime], the IC50 in test [1] was 5 nM; in test [2] it was 12 nM.

Take `C/C(=N\O)c1ccc2nnc(Cc3ccc4ncc(N5CCC(O)CC5)cc4c3)n2n1` [Example 20, (E)-1-(3-((3-(4-Hydroxypiperidin-1-yl)quinolin-6-yl)methyl)-[1,2,4]triazolo[4,3-b]pyridazin-6-yl)ethanone oxime]: the figures for the IC50 in test [1] and in test [2] were 4 nM and 17 nM, respectively.

For `C/C(=N\O)c1ccc2nnc(Cc3c(F)cc4ncc(-c5c(C)noc5C)cc4c3F)n2n1` [Example 23, (E)-1-(3-((3-(3,5-Dimethylisoxazol-4-yl)-5,7-difluoroquinolin-6-yl)methyl)-[1,2,4]triazolo[4,3-b]pyridazin-6-yl)ethanone oxime], the IC50 worked out at 8 nM in test [1] and 11 nM in test [2].

On to `C/C(=N\O)c1ccc2nnc(C3(c4ccc5ncc(N6CCN(C)CC6)cc5c4)CC3)n2n1` [Example 27], for which the IC50 turned out to be 31 nM in test [1] and 240 nM in test [2].

Turning to `C/C(=N\O)c1ccc2nnc(Sc3ccc4ncc(N5CCC(N(C)C)C5)cc4c3)n2n1` (centres unmarked) [Example 33, (E)-1-(3-((3-(3-(dimethylamino)pyrrolidin-1-yl)quinolin-6-yl)sulfanyl)-[1,2,4]triazolo[4,3-b]pyridazin-6-yl)ethanone oxime], the IC50 in test [1] worked out at 0.9 nM; in test [2], 1 nM.

As to `C/C(=N\O)c1ccc2nnc(Cc3ccc4ncc(NC5CCOCC5)cc4c3)n2n1` [Example 34, (E)-1-{3-[3-(Tetrahydro-pyran-4-ylamino)-quinolin-6-ylmethyl]-[1,2,4]triazolo[4,3-b]pyridazin-6-yl}-ethanone oxime], the IC50 in test [1] was 2 nM; in test [2], 10 nM.
